The values below come from DBAASP.

Common to all, as to experiment: ≥ marks a high value that may be exact or a test limit, other limits are often not marked, values filed in µg/mL are converted to µM
Assay [1] concerns Shewanella putrefaciens IAM 1509.
Assay [2] relates to Staphylococcus aureus IAM 1011.
Assay [3] deals with Vibrio anguillarum NCIMB 829.
Assay [4] has as its system Escherichia coli JCM 1649.
The subject of assay [5] is Aeromonas salmonicida NCIMB 1102.
The test system of assay [6] is Vibrio parahaemolyticus Vp+1.
Assay [7] relates to Photobacterium damselae subsp. piscicida Sp 9587.
The test system of assay [8] is Salmonella typhimurium.
The test system of assay [9] is Bacillus subtilis IAM 1026.
Assay [10] concerns Pseudomonas corrugata DSM 7228.
Assay [11] concerns Pectobacterium carotovorum subsp. carotovorum DSM 30168.
The test system of assay [12] is Xanthomonas vesicatoria DSM 50861.
Assay [13] relates to Pseudomonas syringae pv. syringae DSM 10604.
The subject of assay [14] is Clavibacter michiganensis subsp. michiganensis DSM 46294.
Assay [15] relates to Pseudomonas syringae pv. tomato DC3000.
Assay [16] deals with Pseudomonas aeruginosa 253.
In assay [17] the test system is Enterococcus faecalis ATCC 29212.
In assay [18] the test system is Pseudomonas aeruginosa 910.
Assay [19] has as its system Staphylococcus epidermidis PIA 8400.
Assay [20] has as its system Staphylococcus aureus MR.
In assay [21] the test system is Escherichia coli ATCC 25922.
Assay [22] relates to Pseudomonas aeruginosa PAO1.
For assay [23], the system named is Staphylococcus aureus.
The subject of assay [24] is Staphylococcus aureus ATCC 29213.
The test system of assay [25] is Pseudomonas aeruginosa ATCC 27853.
For assay [26], the system named is Pseudomonas aeruginosa 919.
In assay [27] the test system is Neisseria gonorrhoeae F62.
In assay [28] the test system is Neisseria gonorrhoeae FA19.
Assay [29] has as its system Candida glabrata 65C.
For assay [30], the system named is Saccharomyces cerevisiae S288C.
In assay [31] the test system is Streptococcus mutans UA159.
The test system of assay [32] is Cryptococcus neoformans CN2.
The subject of assay [33] is Streptococcus gordonii ATCC 10558.
The subject of assay [34] is Cryptococcus neoformans ATCC 52817.
Assay [35] has as its system Candida glabrata ATCC 90030.
For assay [36], the system named is Streptococcus mutans GS-5.
The subject of assay [37] is Streptococcus sanguinis ATCC 49295.
The subject of assay [38] is Candida albicans ATCC 96112.
In assay [39] the test system is Escherichia coli JM109.
The test system of assay [40] is Cupriavidus necator H16.
In assay [41] the test system is Pseudomonas putida GPp104.
The test system of assay [42] is Escherichia coli BL21(DE3).
Assay [43] relates to Aspergillus niger CECT 2694.
For assay [44], the system named is Penicillium expansum EPS 26.
Assay [45] concerns Rhizopus stolonifer CECT 2344.
The test system of assay [46] is Fusarium oxysporum f. sp. lycopersici ATCC 201829.

The structures appear in SMILES notation. ≈ marks a conversion by molar mass, not a printed value. Where “and” joins values, the source holds several entries; their conditions need not be identical. Equal entries are not always repeated.

As for `CC[C@H](C)[C@H](NC(=O)[C@H](C)NC(=O)[C@H](Cc1cnc[nH]1)NC(=O)[C@@H](NC(=O)[C@@H](NC(=O)[C@H](Cc1cnc[nH]1)NC(=O)[C@H](Cc1cnc[nH]1)NC(=O)[C@@H](NC(=O)[C@@H](N)Cc1ccccc1)[C@@H](C)CC)[C@@H](C)CC)C(C)C)C(=O)NCC(=O)N[C@@H](CCCN=C(N)N)C(=O)N[C@@H](CC(C)C)C(=O)N[C@@H](Cc1ccccc1)C(N)=O` [FIHHIVHAIGRLF], the MIC – broadly, the smallest concentration in the dilution series that meets the test's criterion for growth inhibition – in [1] is 4.01 µM (≈ 6.25 µg/mL); in assay [2], 2.01 µM (≈ 3.13 µg/mL); in assay [3], no less than 32.1 µM; in assay [4], no less than 32.1 µM; in assay [5], 16 µM (≈ 25 µg/mL); in assay [6], no less than 32.1 µM. Moreover, the results for the MIC in assay [7], in assay [8] and in assay [9] were 8.01 µM (≈ 12.5 µg/mL), no less than 32.1 µM and 8.01 µM (≈ 12.5 µg/mL), respectively.

`CC[C@H](C)[C@H](NC(=O)[C@H](CC(C)C)NC(=O)[C@H](CCCN=C(N)N)NC(=O)[C@H](CCCN=C(N)N)NC(=O)[C@@H](N)CCCCN)C(=O)N[C@@H](Cc1ccccc1)C(=O)N[C@@H](CCCN=C(N)N)C(=O)N[C@H](C(=O)N[C@@H](CC(C)C)C(=O)N[C@@H](CCCCN)C(=O)N[C@@H](CC(C)C)C(=O)N[C@@H](Cc1ccccc1)C(=O)N[C@@H](Cc1ccccc1)C(=O)N[C@@H](CCCN=C(N)N)C(=O)N[C@@H](Cc1ccccc1)C(=O)N[C@@H](CC(C)C)C(=O)N[C@H](C(=O)N[C@@H](CCCCN)C(=O)N[C@@H](CCCCN)C(=O)N[C@@H](CCCN=C(N)N)C(N)=O)C(C)C)[C@@H](C)CC` [KRRLIFRILKLFFRFLVKKR]: the MIC in [10] was determined as 1.87 µM (≈ 5 µg/mL); in [11], 3.73 µM (≈ 10 µg/mL); in assay [12] it was 0.933 µM (≈ 2.5 µg/mL); in [13], 3.73 µM (≈ 10 µg/mL); in [14] it was 0.373 µM (≈ 1 µg/mL); in assay [15], 3.73 µM (≈ 10 µg/mL).

For the compound `CC[C@H](C)[C@H](NC(=O)[C@H](CCCN=C(N)N)NC(=O)[C@H](Cc1c[nH]c2ccccc12)NC(=O)[C@H](CCCN=C(N)N)NC(=O)[C@H](CCCN=C(N)N)NC(=O)[C@@H](N)CCCCN)C(=O)N[C@@H](Cc1c[nH]c2ccccc12)C(=O)N[C@@H](CC(C)C)C(=O)N[C@H](C(N)=O)C(C)C` [KRRWRIWLV], the MIC in assay [16] was 5.66 µM (≈ 7.42 µg/mL); in assay [17], 25.1 µM (≈ 33 µg/mL); in assay [18], 8 µM (≈ 10.5 µg/mL); in [19], 3.05 µM (≈ 4 µg/mL); in assay [20], 13 µM and 25.1 µM; in assay [21] it was 6.09 µM (≈ 7.99 µg/mL). The MIC in assay [22] is 4 µM (≈ 5.25 µg/mL); in assay [23] it was 6.09 µM (≈ 7.99 µg/mL); in [24] it was 6.09 µM (≈ 7.99 µg/mL); in [25], 13 µM and 6.09 µM; in [26], 4 µM (≈ 5.25 µg/mL).

As to `CC(C)C[C@H](N)C(=O)N[C@H](C(=O)N[C@@H](Cc1ccc(O)cc1)C(=O)N[C@H]1CSSC[C@@H](C(=O)N[C@H](C(=O)N[C@H](C(=O)N[C@H](C(N)=O)C(C)C)[C@@H](C)O)C(C)C)NC(=O)[C@H](Cc2ccccc2)NC(=O)[C@H](CCCN=C(N)N)NC(=O)[C@H](CCCN=C(N)N)NC(=O)[C@H](CCCN=C(N)N)NC1=O)[C@@H](C)O` [LTYCRRRFCVTV], the MIC in assay [27] stood at 0.45 µM (≈ 0.681 µg/mL); in assay [28] it was 1.37 µM (≈ 2.07 µg/mL).

Take `CC(C)C[C@H](NC(=O)[C@H](CS)NC(=O)[C@H](CCCCN)NC(=O)[C@H](Cc1ccc(O)cc1)NC(=O)[C@H](CO)NC(=O)[C@H](CCCCN)NC(=O)[C@@H](N)CCCN=C(N)N)C(=O)N[C@@H](Cc1cnc[nH]1)C(=O)N[C@@H](CCCCN)C(=O)N[C@@H](CCCN=C(N)N)C(=O)N[C@@H](CS)C(=O)N[C@@H](CCCN=C(N)N)C(=O)O` [RKSYKCLHKRCR]: the MIC in assay [29] was 3.96 µM (≈ 6.25 µg/mL); in [30], 3.96 µM (≈ 6.25 µg/mL); in assay [31], 30.4 µM (≈ 48 µg/mL); in assay [32], 1.98 µM (≈ 3.13 µg/mL); in [33], no less than 54.1 µM; in assay [34], 3.96 µM (≈ 6.25 µg/mL). Moreover, the minimum inhibitory concentration (MIC) was 15.8 µM (≈ 25 µg/mL) in [35], no less than 37.2 µM in assay [36], no less than 74.4 µM in assay [37] and 3.96 µM (≈ 6.25 µg/mL) in assay [38].

Turning to `CC[C@H](C)[C@H](NC(=O)[C@H](Cc1ccc(O)cc1)NC(=O)[C@@H](NC(=O)[C@@H]1CCCN1C(=O)[C@H](CCCN=C(N)N)NC(=O)[C@H](CCCN=C(N)N)NC(=O)[C@@H](NC(=O)[C@@H](N)CCCN=C(N)N)C(C)C)C(C)C)C(=O)N1CCC[C@H]1C(=O)N[C@@H](CCC(N)=O)C(=O)N1CCC[C@H]1C(=O)N[C@@H](CCCN=C(N)N)C(=O)N1CCC[C@H]1C(=O)N1CCC[C@H]1C(=O)N[C@@H](Cc1cnc[nH]1)C(=O)N1CCC[C@H]1C(=O)N[C@@H](CCCN=C(N)N)C(=O)N[C@@H](CC(C)C)C(=O)O` [RVRRPVYIPQPRPPHPRL], the MIC in assay [39] is 2.5 µM (≈ 5.59 µg/mL); in assay [40], 10 µM (≈ 22.3 µg/mL); in [41] it was 3.13 µM (≈ 6.99 µg/mL); in assay [42], 0.313 µM (≈ 0.699 µg/mL).

With `CC[C@H](C)[C@H](NC(=O)[C@H](CCCCN)NC(=O)[C@H](CCCCN)NC(=O)[C@H](Cc1ccccc1)NC(=O)[C@H](CC(C)C)NC(=O)[C@H](CCCCN)NC(=O)[C@@H](N)Cc1c[nH]c2ccccc12)C(=O)N[C@@H](CC(C)C)C(=O)N[C@@H](CCCCN)C(=O)N[C@@H](CCCCN)C(=O)N[C@@H](CC(C)C)C(N)=O` [WKLFKKILKKL], the minimal inhibitory concentration (MIC) in [43] is 22.4 µM (≈ 32.3 µg/mL); in assay [44], no less than 70.7 µM; in assay [45] it was no less than 35.4 µM; in assay [46], 1.73 µM (≈ 2.5 µg/mL).
